PMC4686872 (European journal of medicinal chemistry, 2015)
Values after ≈ are worked out from the molar mass of the structure shown. Where two headings read alike, the source gives them in different places. One block for each molecule: values may come before it.

Experiments:
MRSA = assay: Broth microdilution MIC against MRSA, summarised over the strains tested; type: cell-based, Staphylococcus aureus; settings: for antimicrobial activity against MRSA (in words): strains as named in the sentence; for MIC: Staphylococcus aureus, MRSA, read-out: MIC against MRSA
[1] = test system: murine macrophage (J774) cell line; assay: MTS cytotoxicity assay
VRSA (VRS2) = assay: Broth microdilution MIC, VRSA VRS2; type: cell-based, Staphylococcus aureus; settings: vancomycin-resistant S. aureus VRS2
[2] = Kinetic solubility screen in PBS; type: physicochemical
Caco-2 bilayer [3] = assay: Caco-2 permeability assay
Caco-2 bilayer [4] = test system: Caco-2 bilayer
in vitro = settings: human, Caco-2
MRSA USA300 = assay: Minimum bactericidal concentration
[5] = 64 µM / up to a concentration of 64 µM
[6] = 128 µM (data not presented), all toxic, exception = not toxic

SMILES: N#Cc1ccccc1/C=C/c1ccccc1 [Compound 43]
- antimicrobial activity against MRSA (in words) (MRSA): complete loss of antimicrobial activity

SMILES: [C-]#[N+]c1ccccc1/C=C/c1ccccn1 [Compound 27]
- antimicrobial activity against MRSA (in words) (MRSA): reduced antimicrobial activities

SMILES: [C-]#[N+]c1ccccc1/C=C(\CC)c1ccc(OC)cc1 [Compound 11]
- toxicity to J774 cells [1, 5]: toxic

SMILES: [C-]#[N+]c1ccccc1CP(=O)(OCC)OCC [Compound 4a]
- Minimum inhibitory concentration (MIC), VRSA2 VRS 2 (VRSA (VRS2)): >128 µM
- antimicrobial activity against MRSA (in words) (MRSA): complete loss of activity

SMILES: [C-]#[N+]c1ccccc1/C=C/c1cccc(F)c1 [Compound 19]
- toxicity to J774 cells [1, 5]: toxic

SMILES: [C-]#[N+]c1ccccc1/C=C/c1ccncc1 [Compound 33]
- antimicrobial activity against MRSA (in words) (MRSA): reduced antimicrobial activities

SMILES: [C-]#[N+]c1ccc(C)cc1-c1ccc(C(F)(F)F)cc1 [Compound 50]
- antimicrobial activity against MRSA (in words) (MRSA): loss in antimicrobial activity

SMILES: [C-]#[N+]c1ccccc1/C=C(\CC)c1cccc(C(F)(F)F)c1 [Compound 12]
- toxicity to J774 cells [1, 5]: toxic

- MIC (MRSA): 4 to 64 µM (≈ 0.877 to 14 µg/mL)
SMILES: [C-]#[N+]c1ccccc1/C=C/c1ccc(C)cc1 [Compound 23]
- antimicrobial activity against MRSA (in words) (MRSA): active against all MRSA strains tested

- MIC (MRSA): ≥ 2 µM
- reduction in the MIC against MRSA (MRSA; relative to compound 1 (removal of the ethyl group)): two-to-eight fold
- Solubility Analysis [2]: Low solubility
- Permeability Analysis (Caco-2 bilayer [3]): Not permeable
SMILES: [C-]#[N+]c1ccccc1/C=C/c1ccccc1 [Compound 13]
- toxicity to J774 cells [1, 5]: neither compound was toxic

SMILES: [C-]#[N+]c1ccccc1-c1ccccc1 [Compound 46]
- antimicrobial activity against MRSA (in words) (MRSA): lacks activity against three strains of MRSA

SMILES: [C-]#[N+]c1ccccc1C=C1CCCCC1 [Compound 26]
- antimicrobial activity against MRSA (in words) (MRSA): inactive against several MRSA isolates

SMILES: [C-]#[N+]c1ccc(/C=C/c2ccccc2)cc1 [Compound 37]
- toxicity to J774 cells [1, 6]: exception

SMILES: COC(=O)[C@H]1[C@H]2C[C@@H]3c4[nH]c5cc(OC)ccc5c4CCN3C[C@H]2C[C@@H](OC(=O)c2cc(OC)c(OC)c(OC)c2)[C@@H]1OC [Reserpine, reference compound]
- Solubility Analysis [2]: Low solubility

SMILES: CC/C(=C\c1ccccc1)c1ccccc1 [Compound 42]
- antimicrobial activity against MRSA (in words) (MRSA): complete loss in the anti-MRSA activity

- Permeability Analysis (Caco-2 bilayer [4]): Low permeability
- Papp A→B (in vitro): 2.3 nm/s
SMILES: CNC(=C[N+](=O)[O-])NCCSCc1ccc(CN(C)C)o1 [Ranitidine]

SMILES: [C-]#[N+]c1ccccc1/C=C/c1ccc([N+](=O)[O-])cc1 [Compound 25]
- toxicity to J774 cells ([1]; 32 µM, all not toxic, exception = toxic): exception
- toxicity to J774 cells [1, 5]: toxic

SMILES: [C-]#[N+]c1ccccc1CCc1ccccc1 [Compound 53]
- antimicrobial activity against MRSA (in words) (MRSA): active against several strains

SMILES: [C-]#[N+]c1ccccc1/C=C/c1ccc(CCCC)cc1 [Compound 24]
- antimicrobial activity against MRSA (in words) (MRSA): lacked activity against most MRSA strains tested

SMILES: [C-]#[N+]c1ccccc1/C=C/c1cccc(OC)c1 [Compound 15]
- toxicity to J774 cells [1, 6]: exception

- MIC (MRSA): 8 to 64 µM (≈ 1.87 to 14.9 µg/mL)
SMILES: [C-]#[N+]c1ccccc1/C=C(\CC)c1ccccc1 [Compound 1]
- bacteriostatic or bactericidal (MRSA USA300): bacteriostatic

SMILES: [C-]#[N+]c1ccccc1/C=C/c1cccnc1 [Compound 30]
- antimicrobial activity against MRSA (in words) (MRSA): reduced antimicrobial activities
- toxicity to J774 cells [1, 6]: exception

SMILES: [C-]#[N+]c1ccc(C)cc1-c1ccc(C(C)(C)C)cc1 [Compound 49]
- antimicrobial activity against MRSA (in words) (MRSA): loss in antimicrobial activity
